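Values below derive from 48-hour exposures of cells grown in 96-well plates, with endpoints linearly interpolated between the two concentrations bracketing the appropriate inhibition level. GI50 marks 50% less growth.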 Active and inactive are the calls of the source. No stated cut-off is given here; in the data, active = GI50 up to about 1.1 µM and inactive = higher.
Legend:
Test in all cases: DTP human tumour cell line panel, 48 h
NCI-H23 = test system: NCI-H23
HCC 2998 = test system: HCC 2998
SK-MEL-2 = test system: SK-MEL-2
KM12 = test system: KM12
RPMI-8226 = test system: RPMI-8226
SW-620 = test system: SW-620
SR = test system: SR
ACHN = test system: ACHN
OVCAR-3 = test system: OVCAR-3
CAKI-1 = test system: CAKI-1
SNB-19 = test system: SNB-19
NCI-H460 = test system: NCI-H460
NCI/ADR-RES = test system: NCI/ADR-RES
NCI-H226 = test system: NCI-H226
U-251 = test system: U-251
MCF7 = test system: MCF7
SK-OV-3 = test system: SK-OV-3
HCT-116 = test system: HCT-116
MOLT-4 = test system: MOLT-4
SF-268 = test system: SF-268

Structure (SMILES) | GI50 (NCI-H23) | GI50 (HCC 2998) | GI50 (SK-MEL-2) | GI50 (KM12) | GI50 (RPMI-8226) | GI50 (SW-620) | GI50 (SR) | GI50 (ACHN) | GI50 (OVCAR-3) | GI50 (CAKI-1) | GI50 (SNB-19) | GI50 (NCI-H460) | GI50 (NCI/ADR-RES) | GI50 (NCI-H226) | GI50 (U-251) | GI50 (MCF7) | GI50 (SK-OV-3) | GI50 (HCT-116) | GI50 (MOLT-4) | GI50 (SF-268)
COc1ccc2cc(CN3CCC(C4CCN(Cc5ccc6cc(OC)ccc6c5)CC4)CC3)ccc2c1 | 17.1 µM (inactive) | 0.18 µM (active) | 4.44 µM (inactive) | 2.43 µM (inactive) | 1.52 µM (inactive) | 2.64 µM (inactive) | 1.24 µM (inactive) | 7.35 µM (inactive) | 3.1 µM (inactive) | 2.73 µM (inactive) | 3.2 µM (inactive) | 2.17 µM (inactive) | 6.82 µM (inactive) | 16.6 µM (inactive) | 2.52 µM (inactive) | 4.06 µM (inactive) | 26.3 µM (inactive) | 2.39 µM (inactive) | 2.2 µM (inactive) | 3.16 µM (inactive)
Cc1cccc(NC(=S)N/N=C2\C(=O)Nc3ccccc32)c1 | > 100 µM (inactive) | > 100 µM (inactive) | 70.6 µM (inactive) | 39 µM (inactive) | > 100 µM (inactive) | > 100 µM (inactive) | 70.3 µM (inactive) | 43.1 µM (inactive) | 32.3 µM (inactive) | 38.2 µM (inactive) | > 100 µM (inactive) | 48.3 µM (inactive) | 29.9 µM (inactive) | > 100 µM (inactive) | 61.8 µM (inactive) | > 100 µM (inactive) | > 100 µM (inactive) | 44.9 µM (inactive) | 59 µM (inactive) | 4.98 µM (inactive)
CCC(Sc1cc(Cl)c(C)cc1S(=O)(=O)Nc1nc(N)nc(N(C)C)n1)C(=O)O (stereo not given) | > 10 µM (inactive) | > 10 µM (inactive) | > 10 µM (inactive) | > 10 µM (inactive) | > 10 µM (inactive) | > 10 µM (inactive) | > 10 µM (inactive) | > 10 µM (inactive) | > 10 µM (inactive) | > 10 µM (inactive) | > 10 µM (inactive) | > 10 µM (inactive) | > 10 µM (inactive) | > 10 µM (inactive) | > 10 µM (inactive) | > 10 µM (inactive) | > 10 µM (inactive) | > 10 µM (inactive) | > 10 µM (inactive) | > 10 µM (inactive)
CCn1c(SCC(=O)N/N=C/c2ccccc2)nc2ccccc2c1=O | 31.8 µM (inactive) | 5.22 µM (inactive) | 11.7 µM (inactive) | 3.64 µM (inactive) | 14.2 µM (inactive) | 1.99 µM (inactive) | 0.478 µM (active) | 36 µM (inactive) | 10 µM (inactive) | 9.08 µM (inactive) | 18.5 µM (inactive) | 2.13 µM (inactive) | 4.05 µM (inactive) | 10.8 µM (inactive) | 18.5 µM (inactive) | 4.75 µM (inactive) | 17.8 µM (inactive) | 5.42 µM (inactive) | 5.14 µM (inactive) | 15.8 µM (inactive)
Oc1ccc(-c2nc3ccc4ccccc4c3c3c2CCCC3)c(O)c1 | 27.9 µM (inactive) | 36.5 µM (inactive) | 9.08 µM (inactive) | 13.8 µM (inactive) | 9.31 µM (inactive) | 20.4 µM (inactive) | 20.2 µM (inactive) | 28.8 µM (inactive) | 24.4 µM (inactive) | 42.5 µM (inactive) | 16.3 µM (inactive) | 19.6 µM (inactive) | > 100 µM (inactive) | > 63 µM (inactive) | 4.1 µM (inactive) | 27.7 µM (inactive) | 48.6 µM (inactive) | 10.7 µM (inactive) | > 48.3 µM (inactive) | 22.2 µM (inactive)
CC/C=C/C[C@H](O[Si](C)(C)C(C)(C)C)[C@H]1C[C@H]2O[C@H]([C@@H](O)C#C[Si](C)(C)C)C[C@H]2O1 | 12 µM (inactive) | 15.9 µM (inactive) | 15.5 µM (inactive) | 17.9 µM (inactive) | 12.9 µM (inactive) | 16.6 µM (inactive) | 2.31 µM (inactive) | 15.2 µM (inactive) | 14.8 µM (inactive) | 11.3 µM (inactive) | 13.8 µM (inactive) | 15.8 µM (inactive) | 13.3 µM (inactive) | 6.68 µM (inactive) | 15.5 µM (inactive) | 6.92 µM (inactive) | 15.5 µM (inactive) | 12.1 µM (inactive) | 12.6 µM (inactive) | 13.8 µM (inactive)
CCOC(=O)C(SCCO)C(C(=O)OCC)n1ccc(=O)[nH]c1=O (stereo not given) | 34.3 µM (inactive) | > 71.8 µM (inactive) | 33.7 µM (inactive) | 37 µM (inactive) | 17.5 µM (inactive) | 12.9 µM (inactive) | 11.9 µM (inactive) | 21.2 µM (inactive) | 23.3 µM (inactive) | 7.83 µM (inactive) | > 100 µM (inactive) | 57.1 µM (inactive) | 25.4 µM (inactive) | > 35.6 µM (inactive) | 27.6 µM (inactive) | 23.1 µM (inactive) | > 100 µM (inactive) | 16.3 µM (inactive) | 3.01 µM (inactive) | 35.4 µM (inactive)
COc1ccc(C2c3cc4c(cc3OC(N3CCOCC3)C2C)OCO4)cc1OC (stereo not given) | 20.4 µM (inactive) | 5.53 µM (inactive) | 5.77 µM (inactive) | 4.46 µM (inactive) | 6.18 µM (inactive) | 4.74 µM (inactive) | 7.36 µM (inactive) | 10.3 µM (inactive) | 3.3 µM (inactive) | 3.07 µM (inactive) | 7.18 µM (inactive) | 6.3 µM (inactive) | 3.61 µM (inactive) | 6.9 µM (inactive) | 5.52 µM (inactive) | 4.97 µM (inactive) | 5.24 µM (inactive) | 4.75 µM (inactive) | 4.48 µM (inactive) | 13.9 µM (inactive)
O=C(O)CNC(=O)c1cccc2c(=O)c3ccccc3[nH]c12 | > 100 µM (inactive) | > 100 µM (inactive) | > 100 µM (inactive) | > 20.9 µM (inactive) | > 100 µM (inactive) | > 100 µM (inactive) | 14.9 µM (inactive) | > 100 µM (inactive) | > 100 µM (inactive) | > 100 µM (inactive) | > 100 µM (inactive) | > 100 µM (inactive) | > 100 µM (inactive) | > 100 µM (inactive) | > 100 µM (inactive) | > 100 µM (inactive) | > 100 µM (inactive) | > 100 µM (inactive) | > 100 µM (inactive) | > 100 µM (inactive)
COC(=O)C1(F)C(=O)NC(=O)NC1O (stereo not given) | > 100 µM (inactive) | > 45.9 µM (inactive) | > 100 µM (inactive) | 50.2 µM (inactive) | > 100 µM (inactive) | > 77.6 µM (inactive) | > 53 µM (inactive) | > 75 µM (inactive) | 62.7 µM (inactive) | 97.9 µM (inactive) | > 100 µM (inactive) | 50.6 µM (inactive) | > 100 µM (inactive) | > 100 µM (inactive) | > 100 µM (inactive) | 10.7 µM (inactive) | > 100 µM (inactive) | 50.8 µM (inactive) | 31.8 µM (inactive) | > 100 µM (inactive)
CC1(C)C2CCC1(C)[C@H](O)[C@H]2Nc1cc(C(F)(F)F)cc(C(F)(F)F)c1 (stereo not given in full) | 2.36 µM (inactive) | 3.38 µM (inactive) | 2.35 µM (inactive) | 2.88 µM (inactive) | 3.01 µM (inactive) | 3.36 µM (inactive) | 2.95 µM (inactive) | > 100 µM (inactive) | 2.24 µM (inactive) | 3.76 µM (inactive) | 4.48 µM (inactive) | 3.71 µM (inactive) | 3.07 µM (inactive) | 6.5 µM (inactive) | 4.15 µM (inactive) | > 100 µM (inactive) | 3.88 µM (inactive) | 2.72 µM (inactive) | 2.19 µM (inactive) | 3.14 µM (inactive)

— ChEMBL document CHEMBL1201862, “PubChem BioAssay data set” (2004)
